Source: the NIST ThermoML archive (doi:10.1021/je200710t)
± gives the expanded uncertainty stated by the source.

Assays:
[1] = for mass density / viscosity: 101.33 kPa, Liquid; for Glass transition temperature: DTA
[2] = refractive index (Na D-line) (dimensionless); details: 101.33 kPa, Liquid, Standard Abbe refractometry

Compound | mass density ([1]; 298.15 K) [kg/m3] | mass density ([1]; 303.15 K) [kg/m3] | mass density ([1]; 308.15 K) [kg/m3] | mass density ([1]; 313.15 K) [kg/m3] | mass density ([1]; 318.15 K) [kg/m3] | mass density ([1]; 323.15 K) [kg/m3] | viscosity ([1]; 323.15 K) [mPa·s] | mass density ([1]; 328.15 K) [kg/m3] | viscosity ([1]; 328.15 K) [mPa·s] | mass density ([1]; 333.15 K) [kg/m3] | viscosity ([1]; 333.15 K) [mPa·s] | mass density ([1]; 338.15 K) [kg/m3] | viscosity ([1]; 338.15 K) [mPa·s] | mass density ([1]; 343.15 K) [kg/m3] | viscosity ([1]; 343.15 K) [mPa·s] | mass density ([1]; 348.15 K) [kg/m3] | viscosity ([1]; 348.15 K) [mPa·s] | mass density ([1]; 353.15 K) [kg/m3] | viscosity ([1]; 353.15 K) [mPa·s] | Glass transition temperature [1] [°C] | other results
N#CCCn1cc[n+](CCO)c1.[Cl-] [1-(2-cyanoethyl)-3-(2-hydroxyethyl)-1H-imidazolium chloride] | 1255.05 ± 3.5 | 1252.2 ± 3.5 | 1249.38 ± 3.5 | 1246.58 ± 3.5 | 1243.81 ± 3.4 | 1241.05 ± 3.4 | 6721 ± 890 | 1238.32 ± 3.4 | 4213 ± 500 | 1235.59 ± 3.4 | 2708 ± 290 | 1232.86 ± 3.3 | 1817 ± 180 | 1230.13 ± 3.3 | 1245 ± 110 | 1227.41 ± 3.3 | 873 ± 68 | 1224.57 ± 3.3 | 632 ± 44 | 14.50 ± 4 | mass density ([1]; 293.15 K): 1257.9 ± 3.6 kg/m3; viscosity ([1]; 303.15 K): 62813 ± 12000 mPa·s; viscosity ([1]; 308.15 K): 33772 ± 5900 mPa·s; viscosity ([1]; 313.15 K): 19046 ± 3100 mPa·s; viscosity ([1]; 318.15 K): 11119 ± 1600 mPa·s; refractive index ([2]; 293.15 K): 1.54996 ± 0.00052; refractive index ([2]; 298.15 K): 1.54847 ± 0.00052; refractive index ([2]; 303.15 K): 1.54699 ± 0.00052; refractive index ([2]; 308.15 K): 1.54554 ± 0.00052; refractive index ([2]; 313.15 K): 1.54412 ± 0.00052; refractive index ([2]; 318.15 K): 1.54277 ± 0.00052; refractive index ([2]; 323.15 K): 1.54133 ± 0.00052; refractive index ([2]; 328.15 K): 1.53985 ± 0.00052; refractive index ([2]; 333.15 K): 1.53847 ± 0.00052
N#CCCn1cc[n+](Cc2ccccc2)c1.[Cl-] [1-(2-cyanoethyl)-3-(phenylmethyl)-1H-imidazolium chloride] | 1202.67 ± 2.5 | 1200.28 ± 2.5 | 1197.33 ± 2.5 | 1194.37 ± 2.5 | 1191.42 ± 2.4 | 1188.5 ± 2.4 | 95152 ± 19000 | 1185.59 ± 2.4 | 42665 ± 7800 | 1182.69 ± 2.4 | 20463 ± 3300 | 1179.8 ± 2.4 | 10434 ± 1500 | 1176.88 ± 2.3 | 5635 ± 720 | 1174.01 ± 2.3 | 3190 ± 360 | 1171.16 ± 2.3 | 1958 ± 190 | 16.21 ± 4 | –
C=CC[n+]1ccn(CCC#N)c1.[Cl-] [3-allyl-1-(2-cyanoethyl)-1H-imidazolium chloride] | 1170.79 ± 2.2 | 1167.79 ± 2.2 | 1164.8 ± 2.2 | 1161.84 ± 2.1 | 1158.88 ± 2.1 | 1155.93 ± 2.1 | 1314 ± 120 | 1152.91 ± 2.1 | 873 ± 68 | 1150.01 ± 2.1 | 599 ± 40 | 1147.11 ± 2 | 423 ± 25 | 1144.22 ± 2 | 306 ± 15 | 1141.32 ± 2 | 226 ± 9 | 1138.42 ± 2 | 171 ± 6 | -1.48 ± 4 | mass density ([1]; 293.15 K): 1173.79 ± 2.2 kg/m3; viscosity ([1]; 298.15 K): 17544 ± 2800 mPa·s; viscosity ([1]; 303.15 K): 10294 ± 1500 mPa·s; viscosity ([1]; 308.15 K): 5761 ± 740 mPa·s; viscosity ([1]; 313.15 K): 3316 ± 380 mPa·s; viscosity ([1]; 318.15 K): 2046 ± 200 mPa·s; refractive index ([2]; 293.15 K): 1.54731 ± 0.00043; refractive index ([2]; 298.15 K): 1.54603 ± 0.00043; refractive index ([2]; 303.15 K): 1.54478 ± 0.00043; refractive index ([2]; 308.15 K): 1.54339 ± 0.00043; refractive index ([2]; 313.15 K): 1.54208 ± 0.00043; refractive index ([2]; 318.15 K): 1.54072 ± 0.00043; refractive index ([2]; 323.15 K): 1.53945 ± 0.00043; refractive index ([2]; 328.15 K): 1.53813 ± 0.00043; refractive index ([2]; 333.15 K): 1.53682 ± 0.00043
CCCC[n+]1ccn(CCC#N)c1.[Cl-] [3-butyl-1-(2-cyanoethyl)-1H-imidazol-3-ium chloride] | 1129.35 ± 3.2 | 1126.15 ± 3.2 | 1122.93 ± 3.2 | 1119.66 ± 3.1 | 1116.49 ± 3.1 | 1113.34 ± 3.1 | 314 ± 16 | 1110.18 ± 3 | 224 ± 10 | 1107.03 ± 3 | 164 ± 6 | 1103.87 ± 3 | 123 ± 3 | 1100.72 ± 2.9 | 94 ± 2 | 1097.57 ± 2.9 | 73 ± 1 | 1094.44 ± 2.9 | 58 ± 1 | -5.23 ± 4 | mass density ([1]; 293.15 K): 1132.55 ± 3.3 kg/m3; viscosity ([1]; 293.15 K): 4707 ± 580 mPa·s; viscosity ([1]; 298.15 K): 2637 ± 280 mPa·s; viscosity ([1]; 303.15 K): 1612 ± 150 mPa·s; viscosity ([1]; 308.15 K): 1020 ± 84 mPa·s; viscosity ([1]; 313.15 K): 668 ± 48 mPa·s; viscosity ([1]; 318.15 K): 451 ± 27 mPa·s; refractive index ([2]; 293.15 K): 1.52575 ± 0.00062; refractive index ([2]; 298.15 K): 1.5243 ± 0.00062; refractive index ([2]; 303.15 K): 1.52287 ± 0.00062; refractive index ([2]; 308.15 K): 1.52139 ± 0.00062; refractive index ([2]; 313.15 K): 1.51992 ± 0.00062; refractive index ([2]; 318.15 K): 1.51846 ± 0.00062; refractive index ([2]; 323.15 K): 1.51707 ± 0.00062; refractive index ([2]; 328.15 K): 1.5156 ± 0.00062; refractive index ([2]; 333.15 K): 1.51418 ± 0.00062
